Measured values from patent US10351547B2, “Somatostatin modulators and uses thereof” (priority 2016, dated 2019).
Like-named read-outs stand apart in the source and are kept apart here.

Target: human SSTR2 (Homo sapiens (Human), UniProt P30874)
Experiment: Human SSTR2 intracellular cAMP functional assay for agonists (HTRF)
Format: cell-based
Summary of the method: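 Cells bearing human SSTR2 exposed to compound for 20 minutes at 37 °C; after lysis, cAMP measured by time-resolved fluorescence (HTRF) and converted via a standard curve. EC50 calculated from cAMP versus compound concentration.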

[1] = CHO-K1 cells stably expressing human SSTR2, NKH477-stimulated cAMP, read-out: EC50 (inhibition of cAMP activities via human SST2R)

Chain of human SSTR2 (P30874 whole entry): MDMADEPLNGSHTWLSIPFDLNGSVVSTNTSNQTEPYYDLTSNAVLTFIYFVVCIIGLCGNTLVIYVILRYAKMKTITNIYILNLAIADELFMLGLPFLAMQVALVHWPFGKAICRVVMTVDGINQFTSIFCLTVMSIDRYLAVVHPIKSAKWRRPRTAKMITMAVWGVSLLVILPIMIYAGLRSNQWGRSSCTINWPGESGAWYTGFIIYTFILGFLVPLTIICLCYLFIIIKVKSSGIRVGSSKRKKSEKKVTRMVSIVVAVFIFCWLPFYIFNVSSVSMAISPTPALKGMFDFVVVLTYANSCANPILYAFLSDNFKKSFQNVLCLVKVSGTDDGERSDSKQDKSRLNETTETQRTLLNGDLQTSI

| Compound | EC50 [1] [nM] | EC50 [nM] |
| --- | --- | --- |
| Nc1c(-c2ccc3ncc(-c4cc(F)cc(F)c4)c(N4CC[C@H]5NCCO[C@@H]5C4)c3c2)cncc1C1CC1 (relative stereo) [2-267, 3-{4-[trans-octahydro-1H-pyrido[3,4-b]morpholin-6-yl]-3-(3,5-difluorophenyl)quinolin-6-yl}-5-cyclopropylpyridin-4-amine] | 10 to 100 |  |
| CON(C)C(=O)Nc1c(C#N)cc(F)c(F)c1-c1ccc2ncc(-c3cc(C)cc(F)c3)c(N3CCC(N)CC3)c2c1 [2-206, 1-{2-[4-(4-aminopiperidin-1-yl)-3-(3-fluoro-5-methylphenyl)quinolin-6-yl]-6-cyano-3,4-difluorophenyl}-3-methoxy-3-methylurea] | < 10 |  |
| CONC(=O)Nc1c(F)cccc1-c1ccc2ncc(-c3cc(F)cc(OC)c3)c(N3CCC(N)CC3)c2c1 [2-174, 1-{2-[4-(4-aminopiperidin-1-yl)-3-(3-fluoro-5-methoxyphenyl)quinolin-6-yl]-6-fluorophenyl}-3-methoxyurea] | < 10 |  |
| Cc1ccnc(-c2ccc3ncc(-c4cc(F)cc(F)c4)c(N4CCC(N)CC4)c3c2)c1N [2-250, 2-[4-(4-aminopiperidin-1-yl)-3-(3,5-difluorophenyl)quinolin-6-yl]-4-methylpyridin-3-amine] | < 10 |  |
| N#Cc1cccc(-c2ccc3ncc(-c4cc(F)cc(F)c4)c(N4CC[C@H]5NCCO[C@@H]5C4)c3c2)c1O (relative stereo) [2-19, 3-{4-[trans-octahydro-1H-pyrido[3,4-b]morpholin-6-yl]-3-(3,5-difluorophenyl)quinolin-6-yl}-2-hydroxybenzonitrile] | < 10 |  |
| N#Cc1cccc(-c2ccc3ncc(-c4cc(F)cc(F)c4)c(N4CCC(N)CC4)c3c2)c1OCC(=O)O [2-56, 2-{2-[4-(4-aminopiperidin-1-yl)-3-(3,5-difluorophenyl)quinolin-6-yl]-6-cyanophenoxy}acetic acid] |  | 10 to 100 |
| O=c1[nH]c2cc(-c3ccc4ncc(-c5cc(F)cc(F)c5)c(N5CC[C@H]6NCCO[C@@H]6C5)c4n3)cc(F)c2[nH]1 (relative stereo) [3-10, 6-{8-[trans-octahydro-1H-pyrido[3,4-b]morpholin-6-yl]-7-(3,5-difluorophenyl)-1,5-naphthyridin-2-yl}-4-fluoro-2,3-dihydro-1H-1,3-benzodiazol-2-one] | < 10 |  |
| Cc1cc(F)cc(-c2nnc3cc(Cl)c(-c4cccc5[nH]c(=O)[nH]c45)cc3c2N2CCC(N)CC2)c1 [1-9, 4-[4-(4-aminopiperidin-1-yl)-7-chloro-3-(3-fluoro-5-methylphenyl)cinnolin-6-yl]-2,3-dihydro-1H-1,3-benzodiazol-2-one] |  | 10 to 100 |
| Cc1cc(F)cc(-c2cnc3ccc(-c4cc(F)cc(C#N)c4O)cc3c2N2CCC(N)CC2)c1 [2-16, 3-[4-(4-aminopiperidin-1-yl)-3-(3-fluoro-5-methylphenyl)quinolin-6-yl]-5-fluoro-2-hydroxybenzonitrile] | < 10 |  |
| Cc1cc(F)cc(-c2cnc3ccc(-c4nccc(C#N)c4N)cc3c2N2CC(C3COCCN3)C2)c1 (stereo not shown) [2-282, 3-amino-2-[3-(3-fluoro-5-methylphenyl)-4-[3-(morpholin-3-yl)azetidin-1-yl]quinolin-6-yl]pyridine-4-carbonitrile] | < 10 |  |
| Cc1cc(C)cc(-c2nnc3cc(Cl)c(Cl)cc3c2N2CCC(N)CC2)c1 [1-3, 1-[6,7-dichloro-3-(3,5-dimethylphenyl)cinnolin-4-yl]piperidin-4-amine] |  | 100 to 1000 |
| Cn1cc(-c2ccc3ncc(-c4cc(F)cc(F)c4)c(N4CC[C@H]5NCCO[C@@H]5C4)c3c2)c(N)n1 (relative stereo) [2-245, 4-{4-[trans-octahydro-1H-pyrido[3,4-b]morpholin-6-yl]-3-(3,5-difluorophenyl)quinolin-6-yl}-1-methyl-1H-pyrazol-3-amine] | < 10 |  |
| CONC(=O)Nc1ncc(F)cc1-c1ccc2ncc(-c3cc(C)cc(F)c3)c(N3CCC(N)CC3)c2c1 [2-183, 1-{3-[4-(4-aminopiperidin-1-yl)-3-(3-fluoro-5-methylphenyl)quinolin-6-yl]-5-fluoropyridin-2-yl}-3-methoxyurea] | < 10 |  |
| Cc1cc(F)cc(-c2cnc3ccc(-c4cc(F)cc(F)c4NC(=O)N(C)C)cc3c2N2CCC(N)CC2)c1 [2-199, 1-{2-[4-(4-aminopiperidin-1-yl)-3-(3-fluoro-5-methylphenyl)quinolin-6-yl]-4,6-difluorophenyl}-3,3-dimethylurea] | < 10 |  |
| NC1CCN(c2c(-c3cc(F)cc(F)c3)cnc3ccc(-c4ccccc4O)cc23)CC1 [2-6, 2-[4-(4-aminopiperidin-1-yl)-3-(3,5-difluorophenyl)quinolin-6-yl]phenol] | < 10 |  |
| Cc1cc(F)cc(-c2cnc3ccc(-c4cc(F)cc5[nH]c(=O)[nH]c45)nc3c2N2CCC(N)CC2)c1 [3-3, 4-[8-(4-aminopiperidin-1-yl)-7-(3-fluoro-5-methylphenyl)-1,5-naphthyridin-2-yl]-6-fluoro-2,3-dihydro-1H-1,3-benzodiazol-2-one] | < 10 |  |
| N#Cc1cccc(-c2ccc3ncc(-c4cc(F)cc(F)c4)c(N4CCC(N)CC4)c3c2)c1 [2-5, 3-[4-(4-aminopiperidin-1-yl)-3-(3,5-difluorophenyl)quinolin-6-yl]benzonitrile] | < 10 |  |

| Compound | EC50 [1] [nM] | EC50 [nM] |
| --- | --- | --- |
| NC1CCN(c2c(-c3cc(F)cc(F)c3)cnc3ccc(-c4c(O)c(Cl)cc(F)c4F)cc23)CC1 [2-134, 2-[4-(4-aminopiperidin-1-yl)-3-(3,5-difluorophenyl)quinolin-6-yl]-6-chloro-3,4-difluorophenol] | < 10 |  |
| CC(=O)OCCOc1c(C#N)cccc1-c1ccc2ncc(-c3cc(F)cc(F)c3)c(N3CCC(N)CC3)c2c1 [2-64, 2-{2-[4-(4-aminopiperidin-1-yl)-3-(3,5-difluorophenyl)quinolin-6-yl]-6-cyanophenoxy}ethyl acetate] | < 10 |  |
| COC(=O)Nc1c(F)cc(F)cc1-c1ccc2ncc(-c3cc(C)cc(F)c3)c(N3CC[C@@H](N)[C@H](OC)C3)c2c1 (relative stereo) [2-235, methyl N-(2-{4-[trans-4-amino-3-methoxypiperidin-1-yl]-3-(3-fluoro-5-methylphenyl)quinolin-6-yl}-4,6-difluorophenyl)carbamate] | < 10 |  |
| CCCNCC1CN(c2c(-c3cc(C)cc(F)c3)cnc3ccc(-c4c(F)ccc(F)c4O)cc23)C1 [2-46, 3,6-difluoro-2-[3-(3-fluoro-5-methylphenyl)-4-{3-[(propylamino)methyl]azetidin-1-yl}quinolin-6-yl]phenol] | < 10 |  |
| Cc1cc(F)cc(-c2cnc3ccc(-c4cc(F)cc(F)c4NC(=O)NOCC(F)(F)F)cc3c2N2CCC(N)CC2)c1 [2-233, 1-{2-[4-(4-aminopiperidin-1-yl)-3-(3-fluoro-5-methylphenyl)quinolin-6-yl]-4,6-difluorophenyl}-3-(2,2,2-trifluoroethoxy)urea] | < 10 |  |
| Cc1cc(F)cc(-c2cnc3ncc(-c4cc(F)cc(C#N)c4O)cc3c2N2CCC(N)CC2)c1 [4-3, 3-[5-(4-aminopiperidin-1-yl)-6-(3-fluoro-5-methylphenyl)-1,8-naphthyridin-3-yl]-5-fluoro-2-hydroxybenzonitrile] | < 10 |  |
| NC1CCN(c2c(-c3cc(Cl)cc(Cl)c3)nnc3ccc(-c4cc(F)c5[nH]c(=O)[nH]c5c4)cc23)CC1 [1-28, 6-[4-(4-aminopiperidin-1-yl)-3-(3,5-dichlorophenyl)cinnolin-6-yl]-4-fluoro-2,3-dihydro-1H-1,3-benzodiazol-2-one] | < 10 |  |
| N#Cc1cccc(-c2ccc3nnc(-c4cc(Cl)cc(Cl)c4)c(N4CCC(N)CC4)c3c2)c1O [1-21, 3-[4-(4-aminopiperidin-1-yl)-3-(3,5-dichlorophenyl)cinnolin-6-yl]-2-hydroxybenzonitrile] | < 10 |  |
| COC(=O)Nc1ccc(C#N)cc1-c1ccc2ncc(-c3cc(F)cc(F)c3)c(N3CCC(N)CC3)c2c1 [2-185] | < 10 |  |
| NC1CCN(c2c(-c3cc(F)cc(F)c3)cnc3ccc(-c4ccc5oc(=O)[nH]c5c4)cc23)CC1 [2-142, 5-[4-(4-aminopiperidin-1-yl)-3-(3,5-difluorophenyl)quinolin-6-yl]-2,3-dihydro-1,3-benzoxazol-2-one] | < 10 |  |
| NCC1CN(c2c(-c3cc(Cl)cc(Cl)c3)nnc3ccc(-c4cc(F)cc(C(N)=O)c4)cc23)C1 [1-34, 3-{4-[3-(aminomethyl)azetidin-1-yl]-3-(3,5-dichlorophenyl)cinnolin-6-yl}-5-fluorobenzamide] | < 10 |  |
| N#Cc1cccc(-c2cnc3ncc(-c4cc(F)cc(F)c4)c(N4CCC(N)CC4)c3c2)c1O [4-1, 3-[5-(4-aminopiperidin-1-yl)-6-(3,5-difluorophenyl)-1,8-naphthyridin-3-yl]-2-hydroxybenzonitrile] |  | 10 to 100 |
| Cc1cc(Cl)cc(-c2nnc3ccc(-c4cccc(C#N)c4O)cc3c2N2CCC(N)CC2)c1 [1-18, 3-[4-(4-aminopiperidin-1-yl)-3-(3-chloro-5-methylphenyl)cinnolin-6-yl]-2-hydroxybenzonitrile] | < 10 |  |
| CCCNCC1CN(c2c(-c3cc(C)cc(F)c3)cnc3ccc(-c4cc(F)c(O)c(F)c4)cc23)C1 [2-52, 2,6-difluoro-4-[3-(3-fluoro-5-methylphenyl)-4-{3-[(propylamino)methyl]azetidin-1-yl}quinolin-6-yl]phenol] |  | 10 to 100 |
| COCCOCOc1c(C#N)cccc1-c1ccc2ncc(-c3cc(F)cc(F)c3)c(N3CCC(N)CC3)c2c1 [2-87, 3-[4-(4-aminopiperidin-1-yl)-3-(3,5-difluorophenyl)quinolin-6-yl]-2-[(2-methoxyethoxy)methoxy]benzonitrile] |  | 10 to 100 |
| CO[C@@H]1CN(c2c(-c3cc(F)cc(F)c3)cnc3ccc(-c4cccc(C#N)c4)cc23)CC[C@H]1N (relative stereo) [2-4, 3-{4-[trans-4-amino-3-methoxypiperidin-1-yl]-3-(3,5-difluorophenyl)quinolin-6-yl}benzonitrile] | < 10 |  |
| NC1CCN(c2c(-c3cc(Cl)cc(Cl)c3)cnc3ccccc23)CC1 [2-11, 1-[3-(3,5-dichlorophenyl)quinolin-4-yl]piperidin-4-amine] |  | 10 to 100 |
